Columns and labels:
BGC-823 = test: cells; conditions: Homo sapiens, BGC-823, 24 h
Description: Antiproliferative activity against human BGC823 cells after 24 hrs by MTT assay

HeLa = test: cells; conditions: Homo sapiens, 24 h
Description: Antiproliferative activity against human HeLa cells after 24 hrs by MTT assay

HepG2 [1] = test: cells; conditions: Homo sapiens, HepG2, 24 h
Description: Antiproliferative activity against human HepG2 cells after 24 hrs by MTT assay

cells = conditions: Homo sapiens, SW 1116, 24 h
Description: Antiproliferative activity against human SW1116 cells after 24 hrs by MTT assay

[2] = target: Methionine aminopeptidase 2 (Homo sapiens, UniProt P50579); test: Inhibition of MetAP2 after 4 hrs
HepG2 [3] = test: Induction of apoptosis in human HepG2 cells assessed as viable cells at 1 uM after 24 hrs using annexin V-FITC and propidium iodide staining by flow cytometry analysis (Rvb =96.26 %); type: functional; conditions: HepG2, 24 h, read-out: Activity
HepG2 [4] = test: Induction of apoptosis in human HepG2 cells assessed as viable cells at 0.5 uM after 24 hrs using annexin V-FITC and propidium iodide staining by flow cytometry analysis (Rvb =96.26 %); type: functional; conditions: HepG2, 24 h, read-out: Activity
HepG2 [5] = test: Induction of apoptosis in human HepG2 cells assessed as late apoptotic/necrotic cells at 4 uM after 24 hrs using annexin V-FITC and propidium iodide staining by flow cytometry analysis (Rvb =0.02 %); type: functional
HepG2 [6] = test: Induction of apoptosis in human HepG2 cells assessed as late pre-necrotic cells at 4 uM after 24 hrs using annexin V-FITC and propidium iodide staining by flow cytometry analysis (Rvb =0.02 %); type: functional
HepG2 [7] = test: Induction of apoptosis in human HepG2 cells assessed as late pre-necrotic cells at 0.5 uM after 24 hrs using annexin V-FITC and propidium iodide staining by flow cytometry analysis (Rvb =0.02 %); type: functional
HepG2 [8] = test: Induction of apoptosis in human HepG2 cells assessed as late pre-necrotic cells at 2 uM after 24 hrs using annexin V-FITC and propidium iodide staining by flow cytometry analysis (Rvb =0.02 %); type: functional
HepG2 [9] = test: Induction of apoptosis in human HepG2 cells after 24 hrs using annexin V-FITC and propidium iodide staining by flow cytometry analysis; type: functional, cell-based
HepG2 [10] = test: Induction of apoptosis in human HepG2 cells assessed as late apoptotic/necrotic cells at 1 uM after 24 hrs using annexin V-FITC and propidium iodide staining by flow cytometry analysis (Rvb =0.02 %); type: functional
HepG2 [11] = test: Induction of apoptosis in human HepG2 cells assessed as early apoptotic cells at 4 uM after 24 hrs using annexin V-FITC and propidium iodide staining by flow cytometry analysis (Rvb =0.02 %); type: functional
HepG2 [12] = test: Induction of apoptosis in human HepG2 cells assessed as viable cells at 4 uM after 24 hrs using annexin V-FITC and propidium iodide staining by flow cytometry analysis (Rvb =96.26 %); type: functional; conditions: HepG2, 24 h, read-out: Activity
HepG2 [13] = test: Induction of apoptosis in human HepG2 cells assessed as late apoptotic/necrotic cells at 2 uM after 24 hrs using annexin V-FITC and propidium iodide staining by flow cytometry analysis (Rvb =0.02 %); type: functional
HepG2 [14] = test: Induction of apoptosis in human HepG2 cells assessed as early apoptotic cells at 2 uM after 24 hrs using annexin V-FITC and propidium iodide staining by flow cytometry analysis (Rvb =0.02 %); type: functional
HepG2 [15] = test: Induction of apoptosis in human HepG2 cells assessed as early apoptotic cells at 1 uM after 24 hrs using annexin V-FITC and propidium iodide staining by flow cytometry analysis (Rvb =0.02 %); type: functional
HepG2 [16] = test: Induction of apoptosis in human HepG2 cells assessed as late pre-necrotic cells at 1 uM after 24 hrs using annexin V-FITC and propidium iodide staining by flow cytometry analysis (Rvb =0.02 %); type: functional
HepG2 [17] = test: Induction of apoptosis in human HepG2 cells assessed as early apoptotic cells at 0.5 uM after 24 hrs using annexin V-FITC and propidium iodide staining by flow cytometry analysis (Rvb =0.02 %); type: functional
HepG2 [18] = test: Induction of apoptosis in human HepG2 cells assessed as late apoptotic/necrotic cells at 0.5 uM after 24 hrs using annexin V-FITC and propidium iodide staining by flow cytometry analysis (Rvb =0.02 %); type: functional
HepG2 [19] = test: Induction of apoptosis in human HepG2 cells assessed as viable cells at 2 uM after 24 hrs using annexin V-FITC and propidium iodide staining by flow cytometry analysis (Rvb =96.26 %); type: functional; conditions: HepG2, 24 h, read-out: Activity

Methionine aminopeptidase 2, sequence (P50579 whole entry): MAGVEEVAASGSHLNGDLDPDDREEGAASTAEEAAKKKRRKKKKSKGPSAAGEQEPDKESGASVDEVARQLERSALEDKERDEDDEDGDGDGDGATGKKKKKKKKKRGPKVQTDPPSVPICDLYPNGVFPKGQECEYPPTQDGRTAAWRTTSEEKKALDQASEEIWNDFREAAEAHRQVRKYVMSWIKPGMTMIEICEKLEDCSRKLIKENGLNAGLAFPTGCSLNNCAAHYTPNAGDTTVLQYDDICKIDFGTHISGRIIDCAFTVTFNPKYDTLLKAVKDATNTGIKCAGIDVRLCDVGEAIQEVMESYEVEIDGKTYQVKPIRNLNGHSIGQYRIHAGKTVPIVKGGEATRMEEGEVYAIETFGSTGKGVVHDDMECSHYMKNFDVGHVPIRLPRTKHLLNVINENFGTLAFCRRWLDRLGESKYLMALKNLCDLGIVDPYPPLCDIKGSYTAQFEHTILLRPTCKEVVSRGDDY

Structure (SMILES): c1ccc(CSc2nnc(-c3ccc4c(c3)OCCO4)n2-c2ccccc2)cc1
- IC50 (BGC-823): 73.4 µM
- IC50 (HeLa): 32.8 µM
- IC50 (HepG2 [1]): 5.96 µM
- IC50 (cells): 7.93 µM

Structure (SMILES): O=[N+]([O-])c1cccc(CSc2nnc(-c3ccc4c(c3)OCCO4)n2-c2ccccc2)c1
- IC50 (BGC-823): 30.1 µM
- IC50 (HeLa): 45.2 µM
- IC50 (HepG2 [1]): 49.3 µM
- IC50 (cells): 7.59 µM

Structure (SMILES): Clc1cccc(CSc2nnc(-c3ccc4c(c3)OCCO4)n2-c2ccccc2)c1
- IC50 (BGC-823): 51.2 µM
- IC50 (HeLa): 15 µM
- IC50 (HepG2 [1]): 2.39 µM
- IC50 (cells): 10.6 µM

Structure (SMILES): Fc1ccc(CSc2nnc(-c3ccc4c(c3)OCCO4)n2-c2ccccc2)cc1
- IC50 (BGC-823): > 100 µM
- IC50 (HeLa): 46.9 µM
- IC50 (HepG2 [1]): 1.02 µM
- IC50 (cells): 20.8 µM

Structure (SMILES): Brc1ccc(CSc2nnc(-c3ccc4c(c3)OCCO4)n2-c2ccccc2)cc1
- IC50 (BGC-823): 33.8 µM
- IC50 (HeLa): 54.6 µM
- IC50 (HepG2 [1]): 7.94 µM
- IC50 (cells): 5.81 µM

Structure (SMILES): COc1cccc(CSc2nnc(-c3ccc4c(c3)OCCO4)n2-c2ccccc2)c1
- IC50 (BGC-823): > 100 µM
- IC50 (HeLa): > 100 µM
- IC50 (HepG2 [1]): 35.1 µM
- IC50 (cells): 10.1 µM

Structure (SMILES): O=[N+]([O-])c1ccc(CSc2nnc(-c3ccc4c(c3)OCCO4)n2-c2ccccc2)cc1
- IC50 (BGC-823): 48.6 µM
- IC50 (HeLa): 36.2 µM
- IC50 (HepG2 [1]): 13.8 µM
- IC50 (cells): 13.8 µM

Structure (SMILES): Clc1ccccc1CSc1nnc(-c2ccc3c(c2)OCCO3)n1-c1ccccc1
- IC50 (BGC-823): 17.4 µM
- IC50 (HeLa): 29 µM
- IC50 (HepG2 [1]): 0.97 µM
- IC50 (cells): 9.67 µM

Structure (SMILES): Fc1ccc(CSc2nnc(-c3ccc4c(c3)OCCO4)n2-c2ccccc2)c(F)c1
- IC50 (BGC-823): > 100 µM
- IC50 (HeLa): 18.6 µM
- IC50 (HepG2 [1]): 1.96 µM
- IC50 (cells): 7.83 µM

Structure (SMILES): Cc1ccccc1CSc1nnc(-c2ccc3c(c2)OCCO3)n1-c1ccccc1
- IC50 (BGC-823): > 100 µM
- IC50 (HeLa): 36 µM
- IC50 (HepG2 [1]): 20.5 µM
- IC50 (cells): 12.7 µM

Structure (SMILES): Brc1ccccc1CSc1nnc(-c2ccc3c(c2)OCCO3)n1-c1ccccc1
- IC50 (BGC-823): > 100 µM
- IC50 (HeLa): > 100 µM
- IC50 (HepG2 [1]): 4.73 µM
- IC50 (cells): 7.35 µM

Structure (SMILES): Fc1cccc(F)c1CSc1nnc(-c2ccc3c(c2)OCCO3)n1-c1ccccc1
- IC50 (BGC-823): 84.2 µM
- IC50 (HeLa): 35.2 µM
- IC50 (HepG2 [1]): 2.07 µM
- IC50 (cells): 9.01 µM

Structure (SMILES): Clc1ccc(CSc2nnc(-c3ccc4c(c3)OCCO4)n2-c2ccccc2)cc1
- IC50 (BGC-823): 79.3 µM
- IC50 (HeLa): 79.2 µM
- IC50 (HepG2 [1]): 3.53 µM
- IC50 (cells): 8.3 µM

Structure (SMILES): CO[C@@H]1[C@H](OC(=O)NC(=O)CCl)CC[C@]2(CO2)[C@H]1[C@@]1(C)O[C@@H]1CC=C(C)C [O-CHLOROACETYLCARBAMOYLFUMAGILLOL]
- IC50 (BGC-823): 1.48 µM
- IC50 (HeLa): 2.02 µM
- IC50 (HepG2 [1]): 0.86 µM
- IC50 (cells): 5.54 µM
- IC50 [2]: 1.05 µM

Structure (SMILES): Cc1ccc(CSc2nnc(-c3ccc4c(c3)OCCO4)n2-c2ccccc2)cc1
- IC50 (BGC-823): 44.3 µM
- IC50 (HeLa): 49.7 µM
- IC50 (HepG2 [1]): 56.8 µM
- IC50 (cells): 16.2 µM

Structure (SMILES): Brc1cccc(CSc2nnc(-c3ccc4c(c3)OCCO4)n2-c2ccccc2)c1
- IC50 (BGC-823): 65.6 µM
- IC50 (HeLa): 44.2 µM
- IC50 (HepG2 [1]): 5.21 µM
- IC50 (cells): 26.2 µM

Structure (SMILES): Sc1nnc(-c2ccc3c(c2)OCCO3)n1-c1ccccc1
- IC50 (BGC-823): 47 µM
- IC50 (HeLa): 51.9 µM
- IC50 (HepG2 [1]): 60 µM
- IC50 (cells): 38.4 µM

Structure (SMILES): O=[N+]([O-])c1ccccc1CSc1nnc(-c2ccc3c(c2)OCCO3)n1-c1ccccc1
- IC50 (BGC-823): 26.4 µM
- IC50 (HeLa): 69.8 µM
- IC50 (HepG2 [1]): 12 µM
- IC50 (cells): 8.3 µM

Structure (SMILES): Fc1ccccc1CSc1nnc(-c2ccc3c(c2)OCCO3)n1-c1ccccc1
- viability at 1 µM (HepG2 [3]): 58.9%
- viability at 0.5 µM (HepG2 [4]): 58.3%
- Activity (HepG2 [5]): 23.25%
- Activity (HepG2 [6]): 26.23%
- Activity (HepG2 [7]): 32.8%
- IC50 (BGC-823): 18.6 µM
- Activity (HepG2 [8]): 27.21%
- Activity (HepG2 [9]): Dose-dependent effect
- IC50 (HeLa): 24.2 µM
- Activity (HepG2 [10]): 13.17%
- Activity (HepG2 [11]): 11%
- viability at 4 µM (HepG2 [12]): 39.5%
- IC50 (HepG2 [1]): 0.81 µM
- Activity (HepG2 [13]): 18%
- Activity (HepG2 [14]): 4.03%
- Activity (HepG2 [15]): 3.49%
- Activity (HepG2 [16]): 24.49%
- Activity (HepG2 [17]): 0.8%
- IC50 (cells): 13.6 µM
- Activity (HepG2 [18]): 8%
- viability at 2 µM (HepG2 [19]): 50.8%

Source: ChEMBL document CHEMBL1828534, “Synthesis and antitumor activity of 1,2,4-triazoles having 1,4-benzodioxan fragment as a novel class of potent methionine aminopeptidase type II inhibitors” (Bioorg Med Chem, 2011)
